# Measured values as given in article PMC8992272, “Stabilities of Three Key Biological Trisulfides with Implications for Their Roles in the Release of Hydrogen Sulfide and Bioaccumulation of Sulfane Sulfur” (ACS Omega, 2022).
# Read-outs that look alike come from different tables or passages of the source.
# Columns and labels:
# Format in all cases: physicochemical
# [1] = Stability in the presence of acetonitrile, benzamide, zinc sulfate or iron sulfate, or in methanol-d4 (1H NMR)
# Description: N-Acetylcysteine trisulfide (26.5 mg, 66 μmol) was dissolved in 600 μL of D2O. Acetonitrile (3.0 mg, 73 μmol) was added, and the ^1H NMR spectra were taken periodically to track degradation.
# N-Acetylcysteine trisulfide (31.4 mg, 78 μmol) was dissolved in 600 μL of D2O. Benzamide (9.4 mg, 78 μmol) was added, and the ^1H NMR spectra were taken periodically to track degradation.
# N-Acetylcysteine trisulfide (15.0 mg, 38 μmol) was dissolved in 600 μL of D2O. ZnSO4 (11.8 mg, 73 μmol) was added, and the ^1H NMR spectra were taken periodically to track degradation.
# N-Acetylcysteine trisulfide (15.0 mg, 38 μmol) was dissolved in 600 μL of D2O. FeSO4·7H2O (11.6 mg, 41 μmol) was added, and the ^1H NMR spectra were taken periodically to track degradation.
# N-Acetylcysteine trisulfide (32.1 mg, 80 μmol) was dissolved in 600 μL of CD3OD. The ^1H NMR spectra were taken periodically to track degradation.
# Cysteine trisulfide (5.1 mg, 19 μmol) was added to 600 μL of D2O. Solution was filtered to remove undissolved particles. […] The ^1H NMR spectra were taken periodically to track degradation.
# Cysteine trisulfide (6.8 mg, 25 μmol) was added to 600 μL of D2O. Solution was filtered to remove undissolved particles. […] The ^1H NMR spectra were taken periodically to track degradation.
# [2] = Stability in D2O in the presence of butylamine or triethylamine, tracked by 1H NMR
# Description: N-Acetylcysteine trisulfide (26.5 mg, 66 μmol) was dissolved in 600 μL of D2O. Butylamine (5.0 mg, 68 μmol) was added, and the ^1H NMR spectra were taken periodically to track degradation.
# N-Acetylcysteine trisulfide (26.5 mg, 66 μmol) was dissolved in 600 μL of D2O. Triethylamine (8.0 mg, 79 μmol) was added, and the ^1H NMR spectra were taken periodically to track degradation.
# Cysteine trisulfide (5.5 mg, 20 μmol) was added to 600 μL of D2O. The solution was filtered to remove undissolved particles. […] The ^1H NMR spectra were taken periodically to track degradation.
# Cysteine trisulfide (4.3 mg, 16 μmol) was added to 600 μL of D2O. The solution was filtered to remove undissolved particles. […] The ^1H NMR spectra were taken periodically to track degradation.
# N-Acetylcysteine tetrasulfide (17.2 mg, 44 μmol) was dissolved in 600 μL of D2O. Butylamine (9.9 mg, 135 μmol) was added, and the ^1H NMR spectra were taken periodically to track degradation.
# N-Acetylcysteine tetrasulfide (17.2 mg, 44 μmol) was dissolved in 600 μL of D2O. Triethylamine (13.5 mg, 135 μmol) was added, and the ^1H NMR spectra were taken periodically to track degradation.
# [3] = Stability in nonbuffered D2O at room and elevated temperature (1H NMR)
# Description: N-Acetylcysteine trisulfide (24.3 mg, 61 μmol) was dissolved in 500 μL of D2O and placed in a 40 °C oil bath. The ^1H NMR spectra were taken periodically to track degradation.
# N-Acetylcysteine trisulfide (24.3 mg, 61 μmol) was dissolved in 500 μL of D2O and placed in a 60 °C oil bath. The ^1H NMR spectra were taken periodically to track degradation.
# N-Acetylcysteine tetrasulfide (8.0 mg, 21 μmol) was dissolved in 600 μL of D2O. The ^1H NMR spectra were taken periodically to track degradation.
# N-Acetylcysteine tetrasulfide (10.0 mg, 26 μmol) was dissolved in 600 μL of D2O and placed in a 40 °C oil bath. The ^1H NMR spectra were taken periodically to track degradation.
smiles,measurement,setting,value
"CC(=O)N[C@@H](CSSSC[C@H](NC(C)=O)C(=O)O)C(=O)O [NAC trisulfide, N-Acetylcysteine Trisulfide]",degradation,"[1]; acetonitrile and benzamide added, D2O, after 8 days",No degradation
same,degradation,"[1]; methanol-d4, after 8 days",no observable degradation
same,stability,"[1]; zinc sulfate and iron sulfate in D2O, 11 days",stable
same,degraded,"[2]; 1 equiv butylamine, D2O, after 1 h",43%
same,degraded,"[2]; 1 equiv butylamine, D2O, after 24 h",92%
same,degraded,"[2]; 1 equiv triethylamine, D2O, after 1 h",14%
same,degraded,"[2]; 1 equiv triethylamine, D2O, after 24 h",87%
same,half-life,"[2]; D2O with butylamine, in the presence of butylamine (abstract), read-out: half-life",53 min
same,half-life,"[2]; D2O with butylamine, in the presence of butylamine, D2O, early data points, read-out: estimated half-life of degradation (converted)",56.4 min
same,half-life,"[2]; D2O with triethylamine, in the presence of triethylamine, D2O, early data points, read-out: estimated half-life of degradation (converted)",132 min
same,time to reach equilibrium,[2]; addition of butylamine or triethylamine,less than 5 h
same,tetrasulfide observed as product,"[2]; both reactions (butylamine, triethylamine), D2O",< 3%
same,degraded,"[3]; 60 °C, in 3 days",74%
same,degradation,"[3]; water, 40 °C oil bath, after 10 days",No noticeable degradation
